According to ChEMBL document CHEMBL4422625, “Structure Elucidation, Conformation, and Configuration of Cytotoxic 6-Heptyl-5,6-dihydro-2 H-pyran-2-ones from Hyptis Species and Their Molecular Docking to α-Tubulin” (J Nat Prod, 2019):

Tests used:
Format in all cases: functional, cell-based
MCF7 = assay: Cytotoxicity against human MCF7 cells after 48 hrs by sulforhodamine B assay; conditions: MCF7, 48 h
HeLa = assay: Cytotoxicity against human HeLa cells after 48 hrs by sulforhodamine B assay
HCT-15 = assay: Cytotoxicity against human HCT15 cells after 48 hrs by sulforhodamine B assay; conditions: HCT-15, 48 h

CCCC[C@H](OC(C)=O)[C@@H](OC(C)=O)[C@H](OC(C)=O)[C@@H]1OC(=O)C=C[C@@H]1OC(C)=O
IC50 (MCF7): 7.7 µM | IC50 (HeLa): 2.7 µM | IC50 (HCT-15): > 10 µM

C/C=C/C[C@H](C)[C@@H](OC)[C@@H](C)[C@H](O)C[C@H]1OC(=O)C=C[C@H]1CC [PIRONETIN]
IC50 (MCF7): 0.015 µM | IC50 (HeLa): 0.092 µM | IC50 (HCT-15): < 0.015 µM

CCCC[C@H](O)/C=C\[C@@H]1OC(=O)C[C@@H](OC)[C@@H]1O
IC50 (MCF7): > 10 µM | IC50 (HeLa): > 10 µM | IC50 (HCT-15): > 10 µM

CCCC[C@@H](/C=C\[C@@H]1OC(=O)C=C[C@@H]1OC(C)=O)OC(C)=O [PECTINOLIDE A]
IC50 (MCF7): 3.2 µM | IC50 (HeLa): 3.2 µM | IC50 (HCT-15): 5.7 µM

CCCC[C@@H](/C=C\[C@@H]1OC(=O)C=C[C@@H]1O)OC(C)=O [PECTINOLIDE C]
IC50 (MCF7): 1 µM | IC50 (HeLa): 0.3 µM | IC50 (HCT-15): 2.3 µM

CCCC[C@H](O)/C=C\[C@@H]1OC(=O)C=C[C@@H]1OC(C)=O [PECTINOLIDE B]
IC50 (MCF7): 9.3 µM | IC50 (HeLa): 4.1 µM | IC50 (HCT-15): 5.2 µM

CCCC[C@H](/C=C\[C@@H]1OC(=O)C=C[C@@H]1OC(C)=O)OC(C)=O
IC50 (MCF7): 0.5 µM | IC50 (HeLa): 0.7 µM | IC50 (HCT-15): 0.8 µM

CCCC[C@@H](/C=C\[C@@H]1OC(=O)C[C@@H](OC)[C@@H]1OC(C)=O)OC(C)=O
IC50 (MCF7): > 10 µM | IC50 (HeLa): > 10 µM | IC50 (HCT-15): > 10 µM

CCCC[C@H](OC(C)=O)[C@@H](O)[C@H](O)[C@@H]1OC(=O)C=C[C@@H]1OC(C)=O
IC50 (MCF7): 9.8 µM | IC50 (HeLa): 6.9 µM | IC50 (HCT-15): 9.9 µM

CC[C@]1(O)C[C@@H]2CN(CCc3c([nH]c4ccccc34)[C@@](C(=O)OC)(c3cc4c(cc3OC)N(C)[C@H]3[C@@](O)(C(=O)OC)[C@H](OC(C)=O)[C@]5(CC)C=CCN6CC[C@]43[C@@H]65)C2)C1 [VINBLASTINE]
IC50 (MCF7): 0.012 µM | IC50 (HeLa): 0.011 µM | IC50 (HCT-15): 0.011 µM

CCCC[C@H](/C=C\[C@@H]1OC(=O)C=C[C@@H]1O)OC(C)=O
IC50 (MCF7): 1.3 µM | IC50 (HeLa): 1.4 µM | IC50 (HCT-15): 9.5 µM

CCCC[C@H](O)/C=C\[C@@H]1OC(=O)C=C[C@@H]1O
IC50 (MCF7): 5.9 µM | IC50 (HeLa): 6.2 µM | IC50 (HCT-15): 7.4 µM
